Source: patent US11013780B2, “Methods of treating female infertility” (Myovant Sciences GmbH, priority 2016, dated 2021)
Where two headings read alike, the source gives them in different places. Where a SMILES comes first, the peptide text is derived from it. [ ]: non-standard residue; d: D form. Arg(Me) = CNC(=N)NCCC[C@H](N)C(=O)O; Hyp = O=C(O)[C@@H]1C[C@@H](O)CN1; azaGly = NNC(=O)O

What was measured:
[1] = Single dose PK, phase 1, healthy European men; assay type: in vivo, human; settings: for Tmax / half-life / CL/F / AUC(0-inf) / AUC(0-t) / Cmax / Vd/F / CL renal / dose excreted: male, human; for Tmax / half-life / CL/F / AUC(0-inf) / AUC(0-t) / Cmax / Vd/F: plasma; for Vd/F: read-out: Vz/F; for CL renal: urine and plasma, read-out: CLr (renal clearance) (converted); for dose excreted: urine
Protocol: The study was conducted in France.
Eighty-two healthy European male subjects aged 50 to 76 years were enrolled into nine cohorts. 81/82 subjects (98.8%) were white and 1/82 subject (1.2%) was black/African American. Subjects enrolled in the first six cohorts received 0.001, 0.003, 0.01, 0.03, 0.1, or 0.3 mg of API-MA or placebo by single SC bolus. In the 0.3 mg cohort, 6 subjects received API-MA and two received placebo. In the remaining cohorts, 7 subjects received API-MA and three received placebo. Subjects enrolled in the seventh, eighth, and ninth cohorts received 1, 3, or 6 mg of API-MA or placebo by single 2-hour SC infusion. In these cohorts, 6 subjects received API-MA and two received placebo.
To measure urinary excretion of API-MA, urine specimens were collected at the following nominal times: from 12 hours prior to dosing until dosing and 0 to 6, 6 to 12, 12 to 24, 24 to 48 and 48 to 72 hours postdose.
To measure urinary excretion of API-MA, urine specimens were collected at the following nominal times: from 12 hours prior to dosing until dosing and 0 to 6, 6 to 12, 12 to 24, 24 to 48, and 48 to 72 hours after the start of the infusion.

[2] = Multiple-dose PK, SC bolus then continuous 13-day SC infusion, healthy European men; settings: for Css / AUC(0-t) / Cmax: European men, geometric mean (% CV); for AUC(0-t): AUC (0-tlqc) (equal to AUC (0-24))
Protocol: Another study was a phase 1 clinical study of multiple-dose administration of API-MA. The study was conducted in France. It was a randomized, double-blind, placebo-controlled, parallel-group, ascending dose study of the safety, tolerability, plasma PK, and endocrine pharmacodynamic effects of API-MA administered as an SC bolus (0.1 mg) on day 1 followed by continuous SC infusion (i.e., 24 hr/day) from Day 2 to Day 14 (0.01, 0.1, 0.3, or 1.0 mg/day), which was expected to suppress testosterone.

serum LH and FSH = test: Multiple-dose pharmacodynamics, continuous SC infusion, European men; assay type: in vivo, human
Protocol: This study was a phase 1 study of multiple-day, continuous SC infusions of API-MA to 30 healthy European men over age 50. […] Five to six men received active API-MA, and 1 to 2 men received placebo per dose level cohort. The pharmacodynamics of the following hormones were assessed: LH and FSH.
The SC infusion was started 24 hours after the bolus injection; all specimens collected after the 24-hour time point were collected during the SC infusion. Blood specimens were also collected on days 16, 17, 21, 28 and 44 to monitor the return of the hormone concentrations to baseline values.

[3] = single SC 0.001 mg, geometric mean
[4] = single SC 0.003 mg, geometric mean
[5] = single SC 0.01 mg, geometric mean
[6] = single SC 0.03 mg, geometric mean
[7] = single SC 0.1 mg, geometric mean
[8] = single SC 0.3 mg, geometric mean
[9] = subcutaneous, 2-hour INF 1 mg, geometric mean
[10] = subcutaneous, 2-hour INF 3 mg, geometric mean
[11] = subcutaneous, 2-hour INF 6 mg, geometric mean
[12] = single SC 0.001 mg, only 1 subject above LLOQ
[13] = male, human, plasma, sc, 0.1 mg, SC bolus 0.1 mg on Day 1, dosing group 0.01 mg/day
[14] = male, human, plasma, sc, 0.1 mg, SC bolus 0.1 mg on Day 1, dosing group 0.1 mg/day
[15] = male, human, plasma, sc, 0.1 mg, SC bolus 0.1 mg on Day 1, dosing group 0.3 mg/day
[16] = male, human, plasma, sc, 0.1 mg, SC bolus 0.1 mg on Day 1, dosing group 1.0 mg/day

Compound: CC(=O)O.CNC(=N)NCCC[C@H](NC(=O)[C@H](CC(C)C)NC(=O)NNC(=O)[C@H](Cc1ccccc1)NC(=O)[C@@H](NC(=O)[C@H](CC(N)=O)NC(=O)[C@@H]1C[C@@H](O)CN1C(=O)[C@@H](Cc1ccc(O)cc1)NC(C)=O)[C@@H](C)O)C(=O)N[C@@H](Cc1c[nH]c2ccccc12)C(N)=O [API-MA, 2-(N-Acetyl-D-tyrosyl-trans-4-hydroxy-L-prolyl-Lasparaginyl-L-threonyl-L-phenylalanyl)-hydrazinocarbonyl-L-leucyl-Nω-methyl-L-arginyl-L-tryptophanamide monoacetate] (Ac-[dY][Hyp]NTF[azaGly]L[Arg(Me)]W-NH2)
- Ae(0-t) (urine) ([1]; 2-hour INF 1 mg, geometric mean (% CV)): 29971.789 (27.97) ng
- Ae(0-t) (urine) ([1]; 2-hour INF 3 mg, geometric mean (% CV)): 118170.544 (41.46) ng
- Ae(0-t) (urine) ([1]; 2-hour INF 6 mg, geometric mean (% CV)): 322822.342 (10.34) ng
- Tmax ([1]; SC bolus, read-out: Median Tmax, range over cohorts): 0.5 to 0.75 h
- half-life ([1]; sc, 0.001 mg, single SC 0.001 mg, read-out: T½ (median) (converted)): 1.8 h
- half-life ([1]; sc, 0.003 mg, single SC 0.003 mg, read-out: T½ (median) (converted)): 1.43 h
- half-life ([1]; sc, 0.01 mg, single SC 0.01 mg, read-out: T½ (median) (converted)): 2.17 h
- half-life ([1]; sc, 0.03 mg, single SC 0.03 mg, read-out: T½ (median) (converted)): 2.61 h
- half-life ([1]; sc, 0.1 mg, single SC 0.1 mg, read-out: T½ (median) (converted)): 3.08 h
- half-life ([1]; sc, 0.3 mg, single SC 0.3 mg, read-out: T½ (median) (converted)): 3.45 h
- CL/F ([1]; sc, 2-hour INF 1 mg, geometric mean): 380 mL/min
- CL/F ([1]; sc, 2-hour INF 3 mg, geometric mean): 353 mL/min
- CL/F ([1]; sc, 2-hour INF 6 mg, geometric mean): 315 mL/min
- AUC(0-inf) [1, 3]: 0.0475 ng·h/mL
- AUC(0-t) [1, 3]: 0.0267 ng·h/mL
- CL/F [1, 3]: 351 mL/min
- Cmax [1, 3]: 0.0133 ng/mL
- Vd/F [1, 3]: 63.9 L
- Tmax ([1]; single SC 0.001 mg, read-out: Tmax (median)): 0.5 h
- AUC(0-inf) [1, 4]: 0.122 ng·h/mL
- AUC(0-t) [1, 4]: 0.101 ng·h/mL
- CL/F [1, 4]: 409 mL/min
- Cmax [1, 4]: 0.0424 ng/mL
- Vd/F [1, 4]: 55.9 L
- Tmax ([1]; single SC 0.003 mg, read-out: Tmax (median)): 0.75 h
- AUC(0-inf) [1, 5]: 0.371 ng·h/mL
- AUC(0-t) [1, 5]: 0.345 ng·h/mL
- CL/F [1, 5]: 449 mL/min
- Cmax [1, 5]: 0.14 ng/mL
- Vd/F [1, 5]: 85.6 L
- Tmax ([1]; single SC 0.01 mg, read-out: Tmax (median)): 0.5 h
- AUC(0-inf) [1, 6]: 1.11 ng·h/mL
- AUC(0-t) [1, 6]: 1.07 ng·h/mL
- CL/F [1, 6]: 451 mL/min
- Cmax [1, 6]: 0.34 ng/mL
- Vd/F [1, 6]: 96 L
- Tmax ([1]; single SC 0.03 mg, read-out: Tmax (median)): 0.5 h
- AUC(0-inf) [1, 7]: 3.94 ng·h/mL
- AUC(0-t) [1, 7]: 3.89 ng·h/mL
- CL/F [1, 7]: 423 mL/min
- Cmax [1, 7]: 1.38 ng/mL
- Vd/F [1, 7]: 108 L
- Tmax ([1]; single SC 0.1 mg, read-out: Tmax (median)): 0.5 h
- AUC(0-inf) [1, 8]: 13.2 ng·h/mL
- AUC(0-t) [1, 8]: 13.2 ng·h/mL
- CL/F [1, 8]: 378 mL/min
- Cmax [1, 8]: 4.35 ng/mL
- Vd/F [1, 8]: 114 L
- Tmax ([1]; single SC 0.3 mg, read-out: Tmax (median)): 0.625 h
- half-life ([1]; subcutaneous, 1 mg, 2-hour INF 1 mg, read-out: T1/2 (median) (converted)): 3.64 h
- half-life ([1]; subcutaneous, 3 mg, 2-hour INF 3 mg, read-out: T1/2 (median) (converted)): 5.25 h
- half-life ([1]; subcutaneous, 6 mg, 2-hour INF 6 mg, read-out: T1/2 (median) (converted)): 5.26 h
- half-life ([1]; subcutaneous, 6 mg, 3 and 6 mg, read-out: Mean T1/2 at the highest doses (converted)): ~5.2 h
- AUC(0-inf) [1, 9]: 43.8 ng·h/mL
- AUC(0-t) [1, 9]: 43.7 ng·h/mL
- Cmax [1, 9]: 13.1 ng/mL
- Vd/F [1, 9]: 120 L
- Tmax ([1]; subcutaneous, 2-hour INF 1 mg, read-out: Tmax (median)): 2.25 h
- AUC(0-inf) [1, 10]: 141 ng·h/mL
- AUC(0-t) [1, 10]: 141 ng·h/mL
- Cmax [1, 10]: 39.4 ng/mL
- Vd/F [1, 10]: 150 L
- Tmax ([1]; subcutaneous, 2-hour INF 3 mg, read-out: Tmax (median)): 2.25 h
- AUC(0-inf) [1, 11]: 318 ng·h/mL
- AUC(0-t) [1, 11]: 318 ng·h/mL
- Cmax [1, 11]: 82.5 ng/mL
- Vd/F [1, 11]: 141 L
- Tmax ([1]; subcutaneous, 2-hour INF 6 mg, read-out: Tmax (median)): 2.25 h
- CL renal [1, 12]: 17500 mL/min
- CL renal [1, 4]: 19700 mL/min
- CL renal [1, 5]: 17900 mL/min
- CL renal [1, 6]: 15600 mL/min
- CL renal [1, 7]: 17500 mL/min
- CL renal [1, 8]: 14300 mL/min
- CL renal ([1]; subcutaneous, 2-hour INF 1 mg, geometric mean (% CV)): 11400 mL/min
- CL renal ([1]; subcutaneous, 2-hour INF 3 mg, geometric mean (% CV)): 13900 mL/min
- CL renal ([1]; subcutaneous, 2-hour INF 6 mg, geometric mean (% CV)): 16900 mL/min
- dose excreted ([1]; sc, 0.003 to 6 mg, bolus and infusion, read-out: Fe, range over cohorts): 3.09 to 5.4%
- dose excreted ([1]; sc, 2-hour INF 1 mg, geometric mean (% CV), read-out: Fe (urine)): 3%
- dose excreted ([1]; sc, 2-hour INF 3 mg, geometric mean (% CV), read-out: Fe (urine)): 3.94%
- dose excreted ([1]; sc, 2-hour INF 6 mg, geometric mean (% CV), read-out: Fe (urine)): 5.38%
- dose excreted ([1]; single SC 0.001 mg, only 1 subject above LLOQ, read-out: Fe (urine)): 3.47%
- dose excreted ([1]; single SC 0.003 mg, geometric mean, read-out: Fe (urine)): 3.97%
- dose excreted ([1]; single SC 0.01 mg, geometric mean, read-out: Fe (urine)): 3.71%
- dose excreted ([1]; single SC 0.03 mg, geometric mean, read-out: Fe (urine)): 3.34%
- dose excreted ([1]; single SC 0.1 mg, geometric mean, read-out: Fe (urine)): 4.08%
- dose excreted ([1]; single SC 0.3 mg, geometric mean, read-out: Fe (urine)): 3.77%
- Ae(0-t) (urine) [1, 12]: 34.658 ng
- Fe (urine) [1, 12]: 3.466%
- Ae(0-t) (urine) [1, 4]: 119.177 ng
- Ae(0-t) (urine) [1, 5]: 370.540 ng
- Ae(0-t) (urine) [1, 6]: 1003.082 ng
- Ae(0-t) (urine) [1, 7]: 4077.298 ng
- Ae(0-t) (urine) [1, 8]: 11326.187 ng
- Css ([2]; continuous 13-day SC INF 0.01 mg/day (Days 2-14)): 20.2 (34) pg/mL
- Css ([2]; continuous 13-day SC INF 0.1 mg/day (Days 2-14)): 226 (17) pg/mL
- Css ([2]; continuous 13-day SC INF 0.3 mg/day (Days 2-14)): 708 (19) pg/mL
- Css ([2]; continuous 13-day SC INF 1.0 mg/day (Days 2-14)): 2280 (16) pg/mL
- CL/F ([2]; male, human, plasma, sc, 0.01 mg/day): 343 mL/min
- Tmax ([2]; male, human, plasma, sc, 0.1 mg): 0.5 h
- AUC(0-t) [2, 13]: 5.08 ng·h/mL
- AUC(0-t) [2, 14]: 4.28 ng·h/mL
- AUC(0-t) [2, 15]: 4.68 ng·h/mL
- AUC(0-t) [2, 16]: 4.05 ng·h/mL
- Cmax [2, 13]: 1.87 ng/mL
- Cmax [2, 14]: 1.59 ng/mL
- Cmax [2, 15]: 1.65 ng/mL
- Cmax [2, 16]: 1.29 ng/mL
- CL/F ([2]; male, human, plasma, sc, 0.1 mg/day): 308 mL/min
- CL/F ([2]; male, human, plasma, sc, 0.3 mg/day): 295 mL/min
- CL/F ([2]; male, human, plasma, sc, 1 mg/day): 305 mL/min
- Time of gonadotropin peak after bolus (serum LH and FSH; 0.1 mg SC bolus on day 1): 24 h
- Serum LH and FSH concentrations during prolonged infusion (serum LH and FSH; 13-day SC infusion 0.01 to 1.0 mg/day): declined to values below baseline
- Time of LH and FSH return to baseline values postdose (serum LH and FSH; after 13-day SC infusion): ≤ 7 days
